“Also recorded” adds a separate entry of the source. Where two headings read alike, the source gives them in different places.
How the values were obtained:
Plutella xylostella eggs = test: whole plant or invertebrate; assay type: in vivo; conditions: for Number hatched / Number unhatched: dipped 2-10 s, day 6 post laying
Protocol: The ovicidal efficacy of 2-acetyl-1-tetralone was also tested against Plutella eggs.

lice eggs = test: whole plant or invertebrate; assay type: in vivo; conditions: for inhibition at 10000 µM / inhibition at 2500 µM / inhibition at 5000 µM: read-out: Percent inhibition of egg hatching; for inhibition at 2500 µM: 2.5 mM; for inhibition at 5000 µM: 5 mM
[1] = system: Helicoverpa armigera eggs; test: Egg hatching of Helicoverpa armigera
Protocol: A range of concentrations were made up in water and the eggs placed in the solutions for approximately 2-10 seconds. The eggs which had been laid on cloth were then blotted dry and placed in an incubator at 26° C. for 3-4 days until hatch. Hatch rates were then assessed compared to a water only treated control (FIG. 5).
The compound was dissolved in 100% diethoxyglycol and diluted to a final concentration of 1% in water.
Several hundred Helicoverpa armigera eggs (Tatura×Toowoomba strains) were collected, that had been laid on fine mesh cloth over a 24 hour period.
Batches of Helicoverpa eggs were exposed to a specific inhibitor solution for between 2-10 seconds the excess solution drained by blotting with dry tissue paper. The egg masses were then placed in a humid box at 25 degrees until egg hatch. Control eggs were exposed to absolute methanol as described above. At day 6 post laying the eggs were assessed from the different treatments and the percentage of egg hatch determined relative to the control as shown in Table 12.
Batches of Helicoverpa eggs were then exposed to a specific inhibitor solution for between 2-10 seconds the excess solution drained by blotting with dry tissue paper. The egg masses were then placed in a humid box at 25° C. until egg hatch. Control eggs were exposed to absolute methanol as described above. At day 6 post laying the eggs were assessed from the different treatments and the percentage of egg hatch determined relative to the control as shown in Table 13.

[2] = Pediculus humanus, 24 h, treated 24 hr post egg laying
[3] = Pediculus humanus, 48 h, treated 48 hr post egg laying
[4] = Pediculus humanus, 72 h, treated 72 hr post egg laying
[5] = Pediculus humanus, 96 h, treated 96 hr post egg laying
[6] = Pediculus humanus, 120 h, treated 120 hr post egg laying
[7] = Pediculus humanus, 144 h, treated 144 hr post egg laying

`c1cnc2c(c1)ccc1cccnc12` [1,10-phenanthroline, reference compound] was tested, and the “effect on egg hatching of Plutella xylostella (words)” value (Plutella xylostella eggs; 10 mM) was “significantly inhibit egg hatching”, the inhibition at 1000 µM (Plutella xylostella eggs; Plutella xylostella, Table 9, 1 mM, relative to control (100% MeOH), read-out: % Inhibition) was 0% and the inhibition at 10000 µM (Plutella xylostella eggs; Plutella xylostella, Table 9, 10 mM, relative to control (100% MeOH), read-out: % Inhibition) was 100%. The Number hatched (Plutella xylostella eggs; Table 9, 1 mM) was 15, the Number unhatched (Plutella xylostella eggs; Table 9, 1 mM) was 16 and the Number hatched (Plutella xylostella eggs; Table 9, 10 mM) was 0. For the same compound, the Number unhatched (Plutella xylostella eggs; Table 9, 10 mM) was 45, the “inhibition of lice egg hatching following washing of eggs in water” value (lice eggs; 10 mM, then 1 minute wash) was “still highly efficacious at inhibiting lice egg hatching” and the “embryo development in treated eggs” value (lice eggs; 10 mM, a proportion of eggs) was “had embryos that appeared to develop normally yet failed to hatch”. The “inhibition of egg hatching in lice” value (lice eggs; 10 mM, eggs treated 5 days post laying, 10 min) was “significantly inhibited egg hatching”, the inhibition at 1000 µM (lice eggs; Pediculus humanus, 1 mM, eggs treated 5 days post laying, 10 min, read-out: level of inhibition of egg hatching compared to controls) was ~30% and the inhibition at 10000 µM (lice eggs; Pediculus humanus, 10 mM, 10 minutes, not washed, treated 24 hr post laying) was 100%. The inhibition at 10000 µM (lice eggs; Pediculus humanus, 10 mM, 10 minutes, not washed, treated 48 hr post laying) was 100%, the inhibition at 10000 µM (lice eggs; Pediculus humanus, 10 mM, 10 minutes, not washed, treated 72 hr post laying) was 100% and the inhibition at 10000 µM (lice eggs; Pediculus humanus, 10 mM, 10 minutes, not washed, treated 96 hr post laying) was 100%. It also gave an inhibition at 10000 µM (lice eggs; Pediculus humanus, 10 mM, 10 minutes, not washed, treated 120 hr post laying) of 100%, an inhibition at 10000 µM (lice eggs; Pediculus humanus, 10 mM, 10 minutes, washed for 1 minute, treated 24 hr post laying) of 100% and an inhibition at 10000 µM (lice eggs; Pediculus humanus, 10 mM, 10 minutes, washed for 1 minute, treated 48 hr post laying) of 100%. For the same compound, the inhibition at 10000 µM (lice eggs; Pediculus humanus, 10 mM, 10 minutes, washed for 1 minute, treated 72 hr post laying) was 100%, the inhibition at 10000 µM (lice eggs; Pediculus humanus, 10 mM, 10 minutes, washed for 1 minute, treated 96 hr post laying) was 97% and the inhibition at 10000 µM (lice eggs; Pediculus humanus, 10 mM, 10 minutes, washed for 1 minute, treated 120 hr post laying) was 62%. For the same compound, the inhibition at 2500 µM (lice eggs; [2]) was 100%, the inhibition at 5000 µM (lice eggs; [2]) was 100% and the inhibition at 10000 µM (lice eggs; Pediculus humanus, 24 h, 10 mM, treated 24 hr post egg laying) was 100%. The inhibition at 2500 µM (lice eggs; [3]) was 100%, the inhibition at 5000 µM (lice eggs; [3]) was 100% and the inhibition at 10000 µM (lice eggs; Pediculus humanus, 48 h, 10 mM, treated 48 hr post egg laying) was 100%. The inhibition at 2500 µM (lice eggs; [4]) was 85%, the inhibition at 5000 µM (lice eggs; [4]) was 100% and the inhibition at 10000 µM (lice eggs; Pediculus humanus, 72 h, 10 mM, treated 72 hr post egg laying) was 100%. The inhibition at 2500 µM (lice eggs; [5]) was 85%, the inhibition at 5000 µM (lice eggs; [5]) was 100% and the inhibition at 10000 µM (lice eggs; Pediculus humanus, 96 h, 10 mM, treated 96 hr post egg laying) was 100%. For the same compound, the inhibition at 2500 µM (lice eggs; [6]) was 89%, the inhibition at 5000 µM (lice eggs; [6]) was 93% and the inhibition at 10000 µM (lice eggs; Pediculus humanus, 120 h, 10 mM, treated 120 hr post egg laying) was 100%. The inhibition at 2500 µM (lice eggs; [7]) was 60%, the inhibition at 5000 µM (lice eggs; [7]) was 96% and the inhibition at 10000 µM (lice eggs; Pediculus humanus, 144 h, 10 mM, treated 144 hr post egg laying) was 100%. For the same compound, the “inhibition of egg hatching” value (lice eggs; added within 24 hours of hatching) was “variable inhibition of egg hatching”, the “inhibition of lice egg hatching in time-course experiments” value (lice eggs; varying concentrations (10, 5, 2.5 mM), 24-144 hr post egg laying) was “Significant inhibition; also recorded: significantly inhibit egg hatching in lice at all time points examined” and the “effect on egg hatching of Helicoverpa armigera (words)” value ([1]; 10 mM) was “able to inhibit egg hatching”. The inhibition at 1000 µM ([1]; Helicoverpa armigera) was 0%, the inhibition at 10000 µM ([1]; Helicoverpa armigera) was 44% and the Number hatched ([1]; Table 12, 10 mM) was 31. The Number unhatched ([1]; Table 12, 10 mM) was 16.

From patent publication US20070254907A1, “COMPOSITIONS AND METHODS FOR CONTROLLING INFESTATION” (HATCHTECH PTY LTD, priority 2003, published 2007)
